{"source": "patent US8957063B2", "about": "“Amine and ether compounds which modulate the CB2 receptor” (priority 2008, dated 2015)"}
{"molecular_target": "T1, human CB2R (Homo sapiens, UniProt P34972)", "T1 construct": "host or cells: CHO cells", "T1 sequence (P34972 whole entry)": "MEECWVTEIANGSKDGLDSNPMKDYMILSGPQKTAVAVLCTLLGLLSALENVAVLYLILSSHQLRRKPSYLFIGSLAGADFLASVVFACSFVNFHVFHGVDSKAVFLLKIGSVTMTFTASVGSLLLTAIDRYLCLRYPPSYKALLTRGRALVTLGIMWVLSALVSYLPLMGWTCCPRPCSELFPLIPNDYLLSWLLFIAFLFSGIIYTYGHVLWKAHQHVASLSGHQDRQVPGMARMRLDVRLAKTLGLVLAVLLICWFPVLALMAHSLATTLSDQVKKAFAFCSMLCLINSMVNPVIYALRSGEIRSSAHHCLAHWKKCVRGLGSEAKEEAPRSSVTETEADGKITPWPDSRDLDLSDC", "experiment": "CB2R mediated modulation of cAMP synthesis", "assay_type": "cell-based", "conditions": "not given", "method": "(§1) B. CB2R Mediated Modulation of cAMP Synthesis:\n(§2) Compounds of the invention were evaluated for their CB2 agonist or inverse agonistic activity in accordance with the following experimental method.\n(§3) CHO cells expressing human CB2R (Euroscreen) were plated at a density of 5000 cells per well in 384 well plates and incubated overnight at 37° C. After removing the media, the cells were treated with test compounds diluted in stimulation buffer containing 1 mM IBMX, 0.25% BSA and 10 uM Forskolin. The assay was incubated for 30 minutes at 37° C. Cells were lysed and the cAMP concentration was measured using DiscoverX-XS cAMP kit, following the manufacturer's protocol. In this setting, agonists will decrease forskolin induced production of cAMP while inverse agonists will further increase forskolin induced production of cAMP. EC50 of agonists were calculated as follows. The maximal amount of cAMP produced by forskolin compared to the level of cAMP inhibited by 1 uM CP55940 is defined as 100%. The EC50 value of each test compound was determined as the concentration at which 50% of the forskolin-stimulated cAMP synthesis was inhibited. Data was analyzed using a four-parameter logistic model. (Model 205 of XLfit 4.0).", "units": {"EC50": "nM"}}
{"compound": "CC(C)(OCC1CCOCC1)C(=O)Nc1cc(C(C)(C)C)no1", "note": "[Example 2, N-(3-tert-Butyl-isoxazol-5-yl)-2-methyl-2-(tetrahydro-pyran-4-ylmethoxy)-propionamide]", "EC50": 8.1}
{"compound": "CC(C)(OC1CCOCC1)C(=O)Nc1cc(C(C)(C)C)no1", "note": "[Example 4, N-(3-tert-Butyl-isoxazol-5-yl)-2-methyl-2-(tetrahydro-pyran-4-yloxy)-propionamide]", "EC50": 107}
{"compound": "CC(C)(C)c1cc(NC(=O)C(C)(C)N2CCC(F)(F)CC2)no1", "note": "[Example 28, N-(5-tert-Butyl-isoxazol-3-yl)-2-(4,4-difluoro-piperidin-1-yl)-isobutyramide]", "EC50": 24}
{"compound": "CC(C)(NC1CCOCC1)C(=O)Nc1nc(-c2ccccc2)n[nH]1", "note": "[Example 42, 2-Methyl-N-(5-phenyl-2H-1,2,4-triazol-3-yl)-2-(tetrahydro-pyran-4-ylamino)-propionamide]", "EC50": 260}
{"compound": "CC(C)(Oc1ccc(Cl)cc1)C(=O)Nc1cc(C(C)(C)C)on1", "note": "[Example 1, N-(5-tert-Butyl-isoxazol-3-yl)-2-(4-chloro-phenoxy)-2-methyl-propionamide]", "EC50": 2.4}
{"compound": "CCC(C)NC(C)(C)C(=O)Nc1cc(C(C)(C)C)on1", "note": "(stereo not shown) [Example 11, 2-sec-Butylamino-N-(5-tert-butyl-isoxazol-3-yl)-2-methyl-propionamide]", "EC50": 177}
{"compound": "CC1CCCN1C(C)(C)C(=O)Nc1cc(C(C)(C)C)on1", "note": "(stereo not shown) [Example 20, N-(5-tert-Butyl-isoxazol-3-yl)-2-(2-methyl-pyrrolidin-1-yl)-isobutyramide]", "EC50": 24}
{"compound": "CC(C)(Oc1ccc(C(F)(F)F)cn1)C(=O)Nc1cc(C(C)(C)C)no1", "note": "[Example 8, N-(3-tert-Butyl-isoxazol-5-yl)-2-methyl-2-(5-trifluoromethyl-pyridin-2-yloxy)-propionamide]", "EC50": 0.1}
{"compound": "CC(C)(Nc1ccc(C(F)(F)F)cn1)C(=O)Nc1cc(C(C)(C)C)on1", "note": "[Example 47, N-(5-tert-Butyl-isoxazol-3-yl)-2-methyl-2-(5-trifluoromethyl-pyridin-2-ylamino)-propionamide]", "EC50": 20}
{"compound": "CC(C)(C)c1cc(NC(=O)C(C)(C)N2CCC3(CCCCC3)C2)on1", "note": "[Example 36, 2-(2-Aza-spiro[4.5]dec-2-yl)-N-(3-tert-butyl-isoxazol-5-yl)-isobutyramide]", "EC50": 0.45}
{"compound": "CN(C(=O)N1CCS(=O)(=O)CC1)C(C)(C)C(=O)Nc1cc(C(C)(C)C)on1", "note": "[Example 51, 1,1-Dioxo-1λ6-thiomorpholine-4-carboxylic acid [1-(5-tert-butyl-isoxazol-3-ylcarbamoyl)-1-methyl-ethyl]-methyl-amide]", "EC50": 39}
{"compound": "COc1ccc(NC(C)(C)C(=O)Nc2cc(C(C)(C)C)on2)cc1", "note": "[Example 9, N-(5-tert-Butyl-isoxazol-3-yl)-2-(4-methoxy-phenylamino)-2-methyl-propionamide]", "EC50": 8.7}
{"compound": "CC(C)(OC1CCOCC1)C(=O)Nc1nc(-c2ccccc2)n[nH]1", "note": "[Example 7, 2-Methyl-N-(5-phenyl-2H-1,2,4-triazol-3-yl)-2-(tetrahydro-pyran-4-yloxy)-propionamide]", "EC50": 235}
{"compound": "CC(C)(NCC1CCOCC1)C(=O)Nc1cc(C(C)(C)C)on1", "note": "[Example 38, N-(5-tert-Butyl-isoxazol-3-yl)-2-methyl-2-[(tetrahydro-pyran-4-ylmethyl)-amino]-propionamide]", "EC50": 125}
{"compound": "CC(C)(C)c1cc(NC(=O)C(C)(C)n2ccc3cc(Cl)ccc32)no1", "note": "[Example 35, N-(5-tert-Butyl-isoxazol-3-yl)-2-(5-chloro-indol-1-yl)-isobutyramide]", "EC50": 0.22}
{"compound": "CC(C)(OCC1CCOCC1)C(=O)Nc1nc(-c2ccccc2)n[nH]1", "note": "[Example 6, 2-Methyl-N-(5-phenyl-2H-1,2,4-triazol-3-yl)-2-(tetrahydro-pyran-4-ylmethoxy)-propionamide]", "EC50": 51}
{"compound": "CC1CCCCN1C(C)(C)C(=O)Nc1cc(C(C)(C)C)on1", "note": "(stereo not shown) [Example 24, N-(5-tert-Butyl-isoxazol-3-yl)-2-(2-methyl-piperidin-1-yl)-isobutyramide]", "EC50": 1.2}
{"compound": "CC(C)(OCC1CCOCC1)C(=O)Nc1cc(C(C)(C)C)on1", "note": "[Example 3, N-(5-tert-Butyl-isoxazol-3-yl)-2-methyl-2-(tetrahydro-pyran-4-ylmethoxy)-propionamide]", "EC50": 50}
{"compound": "CC1CCN(C(C)(C)C(=O)Nc2cc(C(C)(C)C)on2)CC1", "note": "[Example 21, N-(5-tert-Butyl-isoxazol-3-yl)-2-(4-methyl-piperidin-1-yl)-isobutyramide]", "EC50": 2.6}
{"compound": "CC(C)N(C)C(C)(C)C(=O)Nc1cc(C(C)(C)C)on1", "note": "[Example 12, N-(5-tert-Butyl-isoxazol-3-yl)-2-(isopropyl-methyl-amino)-2-methyl-propionamide]", "EC50": 8.4}
{"compound": "CC(C)(C(=O)Nc1ccc(C(F)(F)F)cn1)N1CCCCC1", "note": "[Example 32, 2-Piperidin-1-yl-N-(5-trifluoromethyl-pyridin-2-yl)-isobutyramide]", "EC50": 127}
{"compound": "CC(C)(C)c1cc(NC(=O)C(C)(C)N2CCSCC2)no1", "note": "[Example 22, N-(5-tert-Butyl-isoxazol-3-yl)-2-thiomorpholin-4-yl-isobutyramide]", "EC50": 9.9}
{"compound": "CC(C)(Nc1ccc(C(F)(F)F)cn1)C(=O)Nc1cc(C(C)(C)C)no1", "note": "[Example 46, N-(3-tert-Butyl-isoxazol-5-yl)-2-methyl-2-(5-trifluoromethyl-pyridin-2-ylamino)-propionamide]", "EC50": 0.78}
{"compound": "CC(C)(C)c1cc(NC(=O)C(C)(C)N2CCOCC2)no1", "note": "[Example 13, N-(5-tert-Butyl-isoxazol-3-yl)-2-morpholin-4-yl-isobutyramide]", "EC50": 45}
{"compound": "CN(C(=O)c1ccc(Cl)cc1)C(C)(C)C(=O)Nc1cc(C(C)(C)C)on1", "note": "[Example 50, N-[1-(5-tert-Butyl-isoxazol-3-ylcarbamoyl)-1-methyl-ethyl]-4-chloro-N-methyl-benzamide]", "EC50": 124}
{"compound": "CN(C(C)(C)C(=O)Nc1cc(C(C)(C)C)on1)S(=O)(=O)c1ccc(Cl)cc1", "note": "[Example 48, N-(5-tert-Butyl-isoxazol-3-yl)-2-[(4-chloro-benzenesulfonyl)-methyl-amino]-2-methyl-propionamide]", "EC50": 0.36}
{"compound": "CC1CCCN(C(C)(C)C(=O)Nc2cc(C(C)(C)C)on2)C1", "note": "(stereo not shown) [Example 19, N-(5-tert-Butyl-isoxazol-3-yl)-2-(3-methyl-piperidin-1-yl)-isobutyramide]", "EC50": 0.34}
{"compound": "CC(C)(C)c1cc(NC(=O)C(C)(C)N2CCCCC2)no1", "note": "[Example 26, N-(5-tert-Butyl-isoxazol-3-yl)-2-piperidin-1-yl-isobutyramide]", "EC50": 0.55}
{"compound": "CCCCNC(C)(C)C(=O)Nc1cc(C(C)(C)C)on1", "note": "[Example 17, 2-Butylamino-N-(5-tert-butyl-isoxazol-3-yl)-2-methyl-propionamide]", "EC50": 96}
{"compound": "CN(C(C)(C)C(=O)Nc1cc(C(C)(C)C)on1)S(=O)(=O)c1ccc(F)cc1", "note": "[Example 49, N-(5-tert-Butyl-isoxazol-3-yl)-2-[(4-fluoro-benzenesulfonyl)-methyl-amino]-2-methyl-propionamide]", "EC50": 0.13}
{"compound": "CC(C)(NCC1CCOCC1)C(=O)Nc1nc(-c2ccccc2)n[nH]1", "note": "[Example 41, 2-Methyl-N-(5-phenyl-2H-1,2,4-triazol-3-yl)-2-[(tetrahydro-pyran-4-ylmethyl)-amino]-propionamide]", "EC50": 98}
{"compound": "CC(C)(NC1CCOCC1)C(=O)Nc1cc(C(C)(C)C)no1", "note": "[Example 39, N-(3-tert-Butyl-isoxazol-5-yl)-2-methyl-2-(tetrahydro-pyran-4-ylamino)-propionamide]", "EC50": 29}
{"compound": "CC(C)NC(C)(C)C(=O)Nc1cc(C(C)(C)C)on1", "note": "[Example 10, N-(5-tert-Butyl-isoxazol-3-yl)-2-isopropylamino-2-methyl-propionamide]", "EC50": 100}
{"compound": "CC(C)(Nc1ccc(C(F)(F)F)cc1)C(=O)Nc1cc(C(C)(C)C)no1", "note": "[Example 43, N-(3-tert-Butyl-isoxazol-5-yl)-2-methyl-2-(4-trifluoromethyl-phenylamino)-propionamide]", "EC50": 1.1}
{"compound": "CC(C)(NC1CC1)C(=O)Nc1cc(C(C)(C)C)on1", "note": "[Example 23, N-(5-tert-Butyl-isoxazol-3-yl)-2-cyclopropylamino-2-methyl-propionamide]", "EC50": 235}
{"compound": "CC(C)(NC1CCOCC1)C(=O)Nc1cc(C(C)(C)C)on1", "note": "[Example 40, N-(5-tert-Butyl-isoxazol-3-yl)-2-methyl-2-(tetrahydro-pyran-4-ylamino)-propionamide]", "EC50": 35}
{"compound": "CC(C)(C)c1cc(NC(=O)C(C)(C)N2CCCC2)no1", "note": "[Example 27, N-(5-tert-Butyl-isoxazol-3-yl)-2-pyrrolidin-1-yl-isobutyramide]", "EC50": 23}
{"compound": "COC1CCN(C(C)(C)C(=O)Nc2cc(C(C)(C)C)on2)CC1", "note": "[Example 25, N-(5-tert-Butyl-isoxazol-3-yl)-2-(4-methoxy-piperidin-1-yl)-isobutyramide]", "EC50": 0.21}
{"compound": "CC(C)(NC1CCCCC1)C(=O)Nc1cc(C(C)(C)C)on1", "note": "[Example 14, N-(5-tert-Butyl-isoxazol-3-yl)-2-cyclohexylamino-2-methyl-propionamide]", "EC50": 9.5}
{"molecular_target": "T1, human CB2R", "experiment": "CB2R mediated modulation of cAMP synthesis", "assay_type": "cell-based", "conditions": "CHO cells expressing human CB2R; concentration at which 50% of the forskolin-stimulated cAMP synthesis was inhibited; 100% defined by 1 uM CP55940; read-out: CB2 EC50", "method": "as §1, §2, §3", "units": {"EC50": "nM"}}
{"compound": "CC(C)(NC1CCCCC1)C(=O)Nc1ccc(C(F)(F)F)cn1", "note": "[Example 29, 2-Cyclohexylamino-2-methyl-N-(5-trifluoromethyl-pyridin-2-yl)-propionamide]", "EC50": 469}
